As usually defined, the Inhibition is the percentage by which the read-out fell short of the control.

From patent US20250382332A1, “NOVEL ALPHA-FACTOR BASED PEPTIDES WITH ANTIFUNGAL ACTIVITY” (INVAIO SCIENCES, INC., priority 2024, published 2025) come the findings set out here.

The assay deals with Botrytis cinerea (B05.10). The experiment in a line: Resazurin antifungal assay of 180 alpha-factor peptide variants towards Botrytis (Example 2). It is filed as cell-based. To be noted: % inhibition of fungal growth, Botrytis conidia, resazurin; for Inhibition at 50 μM: peptide 50 μM; for Inhibition at 100 μM: peptide 100 μM. An outline of the steps: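 B. cinerea B05.10 conidia (5000/well) were exposed to peptides at 100, 50, 20, 15 and 10 μM final for 24 h at 20° C. Resazurin was then added and fluorescence read at 570/620 nm. Percent growth inhibition was calculated against conidia-only wells, with four technical replicates.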

Peptide text beside a SMILES is read from it.

Turning to `CC[C@H](C)[C@H](NC(=O)[C@H](CC(C)C)NC(=O)[C@H](Cc1c[nH]cn1)NC(=O)[C@@H]1CCCN1)C(=O)N[C@@H](CCC(N)=O)C(=O)N[C@@H](CC(C)C)C(=O)NCC(=O)N[C@@H](CC(C)C)C(=O)NCC(=O)N[C@@H](CCC(N)=O)C(=O)N1CCC[C@H]1C(=O)N[C@@H](CCSC)C(=O)N[C@@H](Cc1ccc(O)cc1)C(=O)O` [compound 131] (H-PHLIQLGLGQPMY-OH; N-terminus and C-terminus assumed), the “Inhibition at 50 μM” value was below 90% and the “Inhibition at 100 μM” value was below 90%.

Turning to `CSCC[C@H](NC(=O)[C@H](Cc1c[nH]cn1)NC(=O)[C@@H]1CCCN1)C(=O)N[C@H](C(=O)N[C@@H](CCCNC(=N)N)C(=O)N[C@@H](CC(C)C)C(=O)N[C@@H](CCCCN)C(=O)N1CCC[C@H]1C(=O)NCC(=O)N[C@@H](CCC(N)=O)C(=O)N1CCC[C@H]1C(=O)N[C@@H](CCSC)C(=O)N[C@@H](Cc1ccc(O)cc1)C(=O)O)C(C)C` [compound 132] (H-PHMVRLKPGQPMY-OH; N-terminus and C-terminus assumed), the “Inhibition at 50 μM” value is on record as below 90% and the “Inhibition at 100 μM” value was 94.13%.

As for `CC[C@H](C)[C@H](NC(=O)[C@H](CC(C)C)NC(=O)[C@H](CCC(N)=O)NC(=O)CNC(=O)[C@H](Cc1c[nH]c2ccccc12)NC(=O)CNC(=O)[C@@H](N)CCCCN)C(=O)N1CCC[C@H]1C(=O)NCC(=O)N[C@@H](CCC(=O)O)C(=O)N1CCC[C@H]1C(=O)N[C@@H](CCSC)C(=O)N[C@@H](Cc1ccc(O)cc1)C(=O)O` [compound 133] (H-KGWGQLIPGEPMY-OH; N-terminus and C-terminus assumed), the “Inhibition at 50 μM” value is below 90% and the “Inhibition at 100 μM” value was below 90%.

For the compound `CSCC[C@H](NC(=O)[C@@H]1CCCN1C(=O)[C@H](CCC(N)=O)NC(=O)CNC(=O)[C@@H]1CCCN1C(=O)[C@H](CCCCN)NC(=O)[C@H](CC(C)C)NC(=O)[C@H](CCCCN)NC(=O)[C@H](CC(C)C)NC(=O)[C@H](CC(=O)O)NC(=O)CNC(=O)[C@@H](N)Cc1c[nH]c2ccccc12)C(=O)N[C@@H](Cc1ccc(O)cc1)C(=O)O` [compound 134] (H-WGDLKLKPGQPMY-OH; N-terminus and C-terminus assumed), the “Inhibition at 50 μM” value is below 90% and the “Inhibition at 100 μM” value is given as below 90%.

For `CSCC[C@H](NC(=O)[C@@H]1CCCN1C(=O)[C@H](CCC(=O)O)NC(=O)CNC(=O)[C@H](CCCNC(=N)N)NC(=O)[C@H](CCC(N)=O)NC(=O)[C@H](CC(C)C)NC(=O)[C@H](CCC(N)=O)NC(=O)CNC(=O)[C@H](Cc1c[nH]c2ccccc12)NC(=O)[C@H](Cc1c[nH]cn1)NC(=O)[C@@H](N)Cc1c[nH]c2ccccc12)C(=O)N[C@@H](Cc1ccc(O)cc1)C(=O)O` [compound 135] (H-WHWGQLQRGEPMY-OH; N-terminus and C-terminus assumed), the “Inhibition at 50 μM” value was below 90% and the “Inhibition at 100 μM” value was below 90%.

For the compound `CSCC[C@H](NC(=O)[C@@H]1CCCN1C(=O)[C@H](CCC(=O)O)NC(=O)CNC(=O)[C@@H]1CCCN1C(=O)[C@H](CCCCN)NC(=O)[C@H](CC(C)C)NC(=O)[C@H](CCCCN)NC(=O)[C@H](CC(C)C)NC(=O)[C@H](Cc1c[nH]c2ccccc12)NC(=O)[C@H](Cc1c[nH]cn1)NC(=O)[C@@H]1CCCN1)C(=O)N[C@@H](Cc1ccc(O)cc1)C(=O)O` [compound 136] (H-PHWLKLKPGEPMY-OH; N-terminus and C-terminus assumed), the “Inhibition at 50 μM” value is listed as below 90% and the “Inhibition at 100 μM” value was below 90%.

Take `CSCC[C@H](NC(=O)[C@H](Cc1c[nH]cn1)NC(=O)[C@@H](N)Cc1c[nH]c2ccccc12)C(=O)NCC(=O)N[C@@H](CCC(N)=O)C(=O)N[C@@H](CC(C)C)C(=O)N[C@@H](CCCCN)C(=O)N1CCC[C@H]1C(=O)NCC(=O)N[C@@H](CCC(=O)O)C(=O)N1CCC[C@H]1C(=O)N[C@@H](CCSC)C(=O)N[C@@H](Cc1ccc(O)cc1)C(=O)O` [compound 137] (H-WHMGQLKPGEPMY-OH; N-terminus and C-terminus assumed): the “Inhibition at 50 μM” value is below 90% and the “Inhibition at 100 μM” value is on record as below 90%.

As to `CSCC[C@H](NC(=O)[C@H](CCC(N)=O)NC(=O)[C@@H](N)Cc1c[nH]c2ccccc12)C(=O)N[C@@H](CC(C)C)C(=O)N[C@@H](CCCCN)C(=O)N[C@@H](CC(C)C)C(=O)N[C@@H](CCCCN)C(=O)N[C@@H](Cc1ccc(O)cc1)C(=O)NCC(=O)N[C@@H](CCC(N)=O)C(=O)N1CCC[C@H]1C(=O)N[C@@H](CCSC)C(=O)N[C@@H](Cc1ccc(O)cc1)C(=O)O` [compound 138] (H-WQMLKLKYGQPMY-OH; N-terminus and C-terminus assumed), the “Inhibition at 50 μM” value was below 90% and the “Inhibition at 100 μM” value is given as below 90%.

Take `CC[C@H](C)[C@H](NC(=O)[C@H](CCC(=O)O)NC(=O)CNC(=O)[C@H](Cc1c[nH]c2ccccc12)NC(=O)[C@H](Cc1c[nH]cn1)NC(=O)[C@@H]1CCCN1)C(=O)N[C@@H](CCCCN)C(=O)N1CCC[C@H]1C(=O)NCC(=O)N[C@@H](CCC(N)=O)C(=O)N[C@@H](CO)C(=O)N[C@@H](CCSC)C(=O)N[C@@H](Cc1ccc(O)cc1)C(=O)O` [compound 139] (H-PHWGEIKPGQSMY-OH; N-terminus and C-terminus assumed): the “Inhibition at 50 μM” value is reported as below 90% and the “Inhibition at 100 μM” value is recorded as below 90%.

For `CC[C@H](C)[C@H](NC(=O)[C@H](Cc1ccccc1)NC(=O)[C@H](CS)NC(=O)[C@@H](N)CCCCN)C(=O)N[C@@H](CCC(N)=O)C(=O)N[C@@H](CC(C)C)C(=O)N[C@@H](CCCCN)C(=O)N1CCC[C@H]1C(=O)NCC(=O)N[C@@H](CCC(N)=O)C(=O)N1CCC[C@H]1C(=O)N[C@@H](CCSC)C(=O)N[C@@H](Cc1ccc(O)cc1)C(=O)O` [compound 140] (H-KCFIQLKPGQPMY-OH; N-terminus and C-terminus assumed), the “Inhibition at 50 μM” value was below 90% and the “Inhibition at 100 μM” value amounted to 90.65%.

On to `CSCC[C@H](NC(=O)[C@@H]1CCCN1C(=O)[C@H](CCC(N)=O)NC(=O)CNC(=O)[C@H](CCCNC(=N)N)NC(=O)[C@H](CCCCN)NC(=O)[C@H](CC(C)C)NC(=O)[C@@H](NC(=O)[C@H](CC(C)C)NC(=O)[C@H](CC(=O)O)NC(=O)[C@H](CCCNC(=N)N)NC(=O)[C@@H]1CCCN1)[C@@H](C)O)C(=O)N[C@@H](Cc1ccc(O)cc1)C(=O)O` [compound 141] (H-PRDLTLKRGQPMY-OH; N-terminus and C-terminus assumed), for which the “Inhibition at 50 μM” value is given as below 90% and the “Inhibition at 100 μM” value is listed as below 90%.

On to `CC[C@H](C)[C@H](NC(=O)[C@H](CO)NC(=O)[C@H](CC(C)C)NC(=O)CNC(=O)[C@H](Cc1c[nH]cn1)NC(=O)[C@@H]1CCCN1)C(=O)N[C@@H](Cc1ccc(O)cc1)C(=O)N1CCC[C@H]1C(=O)NCC(=O)N[C@@H](CCC(N)=O)C(=O)N1CCC[C@H]1C(=O)N[C@@H](CCSC)C(=O)N[C@@H](Cc1ccc(O)cc1)C(=O)O` [compound 142] (H-PHGLSIYPGQPMY-OH; N-terminus and C-terminus assumed), for which the “Inhibition at 50 μM” value is reported as below 90% and the “Inhibition at 100 μM” value was below 90%.

As for `CSCC[C@H](NC(=O)[C@@H]1CCCN1C(=O)[C@H](CCC(N)=O)NC(=O)CNC(=O)[C@@H]1CCCN1C(=O)[C@H](CCCCN)NC(=O)[C@H](CC(C)C)NC(=O)[C@H](CCC(=O)O)NC(=O)CNC(=O)[C@H](Cc1c[nH]c2ccccc12)NC(=O)[C@H](Cc1c[nH]cn1)NC(=O)[C@@H]1CCCN1)C(=O)N[C@@H](Cc1ccc(O)cc1)C(=O)O` [compound 143] (H-PHWGELKPGQPMY-OH; N-terminus and C-terminus assumed), the “Inhibition at 50 μM” value is reported as below 90% and the “Inhibition at 100 μM” value is below 90%.

Regarding `CSCC[C@H](NC(=O)[C@@H]1CCCN1C(=O)[C@H](CCC(N)=O)NC(=O)CNC(=O)[C@@H]1CCCN1C(=O)[C@H](Cc1ccccc1)NC(=O)[C@H](CC(C)C)NC(=O)[C@H](CCC(N)=O)NC(=O)[C@@H](NC(=O)[C@H](Cc1c[nH]c2ccccc12)NC(=O)[C@H](Cc1c[nH]cn1)NC(=O)[C@@H](N)CCCCN)C(C)C)C(=O)N[C@@H](Cc1ccc(O)cc1)C(=O)O` [compound 144] (H-KHWVQLFPGQPMY-OH; N-terminus and C-terminus assumed), the “Inhibition at 50 μM” value is given as below 90% and the “Inhibition at 100 μM” value amounted to 99.99%.

As to `CSCC[C@H](NC(=O)[C@@H]1CCCN1C(=O)[C@H](CCC(N)=O)NC(=O)CNC(=O)[C@H](CC(N)=O)NC(=O)[C@H](CCCCN)NC(=O)[C@H](Cc1ccccc1)NC(=O)[C@H](CC(N)=O)NC(=O)[C@H](CC(C)C)NC(=O)[C@H](Cc1c[nH]c2ccccc12)NC(=O)[C@H](CCC(=O)O)NC(=O)[C@@H](N)CCCCN)C(=O)N[C@@H](Cc1ccc(O)cc1)C(=O)O` [compound 145] (H-KEWLNFKNGQPMY-OH; N-terminus and C-terminus assumed), the “Inhibition at 50 μM” value is on record as below 90% and the “Inhibition at 100 μM” value is recorded as below 90%.

Take `CSCC[C@H](NC(=O)[C@@H]1CCCN1C(=O)[C@H](CCC(N)=O)NC(=O)CNC(=O)[C@@H]1CCCN1C(=O)[C@H](Cc1c[nH]c2ccccc12)NC(=O)[C@H](Cc1ccccc1)NC(=O)[C@H](CCC(N)=O)NC(=O)CNC(=O)[C@@H](NC(=O)[C@H](CCCNC(=N)N)NC(=O)[C@@H](N)Cc1c[nH]c2ccccc12)[C@@H](C)O)C(=O)N[C@@H](Cc1ccc(O)cc1)C(=O)O` [compound 146] (H-WRTGQFWPGQPMY-OH; N-terminus and C-terminus assumed): the “Inhibition at 50 μM” value is below 90% and the “Inhibition at 100 μM” value is given as below 90%.

Take `CSCC[C@H](NC(=O)[C@@H]1CCCN1C(=O)[C@H](CCC(N)=O)NC(=O)CNC(=O)[C@H](CCCNC(=N)N)NC(=O)[C@H](CCCCN)NC(=O)[C@H](CC(C)C)NC(=O)[C@H](CCC(N)=O)NC(=O)CNC(=O)[C@H](CC(=O)O)NC(=O)[C@H](Cc1c[nH]cn1)NC(=O)[C@@H]1CCCN1)C(=O)N[C@@H](Cc1ccc(O)cc1)C(=O)O` [compound 147] (H-PHDGQLKRGQPMY-OH; N-terminus and C-terminus assumed): the “Inhibition at 50 μM” value is reported as below 90% and the “Inhibition at 100 μM” value is reported as below 90%.
